Source: patent US9018259B2, “Treatment of cancer using benzoic acid derivatives” (New York University, priority 2004, dated 2015)

How the values were obtained:
[1] = tested on: 4T1 breast carcinoma cells; experiment: Tumor cell proliferation, WST-1 tetrazolium salt cleavage; type: cell-based; settings: 50 μg/ml test compound for 3 days, with or without 0.01 μM TAXOL for additional 48 hours; compared to untreated control; FIG. 3C
Procedure: (§1) Tumor cell proliferation was assessed by monitoring mitochondrial dehydrogenase activity as detected by tetrazolium salt cleavage using a commercially available kit (WST-1; Roche, Indianapolis, Ind.). Briefly, B16F10 melanoma cells, Lewis Lung carcinoma cells, and 4T1 breast carcinoma cells (1×10^6) were resuspended in PABA-free growth medium supplemented with 2.0% fetal bovine serum and 50 μg/ml of test compound (as shown in FIG. 1) Following incubation for 3 days, the cells were either treated or not treated with 0.01 μM TAXOL® (paclitaxel) and incubated for an additional 48 hours. Proliferation was measured; data points represent the mean optical density at 490 nm±SD from triplicate wells.

[2] = tested on: Lewis Lung carcinoma cells; experiment: as above; type: cell-based; settings: 50 μg/ml test compound for 3 days, with or without 0.01 μM TAXOL for additional 48 hours; compared to untreated control; FIG. 3B
Procedure: as §1

B16F10 melanoma cells [3] = experiment: as above; type: cell-based; settings: 50 μg/ml test compound for 3 days, with or without 0.01 μM TAXOL for additional 48 hours; compared to untreated control; FIG. 3A
Procedure: as §1

[4] = tested on: tyrosinase (from mushrooms); experiment: Purified tyrosinase activity, formation of DOPAchrome from L-DOPA; type: biochemical; settings: at 8.0 mM, up to 10 minutes; L-DOPA 8.0 mM, 800 U/ml tyrosinase; FIG. 2
Procedure: Activity of purified tyrosinase was measured by monitoring the formation of DOPAchrome. Briefly, a fixed concentration of L-DOPA (8.0 mM) was incubated with 800 U/ml tyrosinase (from mushrooms-Sigma, St. Louis, Mo.) in the absence or presence of increasing concentrations of PABA, compound 44 (C-44) and compound 45 (C-45) (see FIG. 1 for structures) for indicated time points (see FIG. 2 for concentrations and time points). At each time point, 100 μl of the reaction mixture was measured. Data points represent the mean optical density at 475 nm±SD from triplicate wells.

B16F10 melanoma cells [5] = experiment: Chick embryo tumor growth model; type: in vivo, chick embryos; settings: B16F10 cells cultured with 50 μg/ml C-45 at least 7 days before implantation; for growth of B16F10 tumors in chick embryos, with or without TAXOL: TAXOL 0.01 μM, FIG. 5B
Procedure: The chick embryo tumor growth model was used to determine whether C-45 enhances the ability of TAXOL® (paclitaxel) or ionizing radiation to inhibit tumor growth. Briefly, B16F10 melanoma cells were cultured in growth medium in the presence or absence of 50 μg/ml C-45 for at least 7 days. Following harvesting and washing, about 2×10^5 tumor cells were implanted onto the chorioallontoic membranes of 10 day-old chick embryos and incubated for at least 24 hours. Following incubation, the embryos were treated with either a single fractionated dose of radiation (5.0 Gy) or TAXOL® (paclitaxel) (0.01 μM) and incubated for an additional 7 days. The embryos were sacrificed and tumors were resected and weighed (5-10 embryos per condition).

B16F10 melanoma cells [6] = experiment: In vivo tumor growth of B16F10 xenografts in nude mice; settings: B16F10 s.c. xenograft, daily intraperitoneal injection for 15 days, TAXOL 0.5 μM, C-45 100 μg, FIG. 4
Procedure: In addition, tumor growth in vivo of xenografts of B16F10 melanoma cells in nude mice was determined. Briefly, subconfluent cultures of B16F10 cells were harvested, washed, and resuspended in sterile PBS. Female nude mice were injected subcutaneously with 1×10^6 cells per mouse and tumors were allowed to grow for 3 days. After 3 days, mice were either untreated or treated daily for 15 days by intraperitoneal injection of TAXOL® (paclitaxel) (0.5 μM), C-45 (100 μg), or a combination of TAXOL® (paclitaxel) and C-45. Tumor growth was determined weekly by caliper measurements. After 15 days, the mice were sacrificed and tumor volume was determined by standard methods using the formula […], where V=volume, L=length, and W=width.

PXR/SXR receptor = target: T1, PXR/SXR receptor (Homo sapiens, UniProt O75469); settings: Moore et al., Mol. Endocrinol. 2002; 16: 977-986; cited from earlier work
T1 sequence (O75469 1-434): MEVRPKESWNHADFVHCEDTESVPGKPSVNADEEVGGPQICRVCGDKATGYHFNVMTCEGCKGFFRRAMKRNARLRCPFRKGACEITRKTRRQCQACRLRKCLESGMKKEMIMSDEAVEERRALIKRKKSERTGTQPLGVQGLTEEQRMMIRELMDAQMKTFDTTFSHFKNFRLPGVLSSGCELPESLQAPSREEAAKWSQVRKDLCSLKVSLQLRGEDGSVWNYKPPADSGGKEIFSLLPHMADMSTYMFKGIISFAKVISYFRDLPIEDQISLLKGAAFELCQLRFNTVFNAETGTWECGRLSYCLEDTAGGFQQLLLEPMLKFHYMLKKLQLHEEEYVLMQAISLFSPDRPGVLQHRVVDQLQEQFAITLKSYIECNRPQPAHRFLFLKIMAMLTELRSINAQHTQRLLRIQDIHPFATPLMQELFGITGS

BRCA-2 = BRCA-2 protein expression in G361 melanoma cells treated with PABA; type: cell-based; settings: G361 human melanoma cells treated with PABA; data not shown
From the text: (§2) To determine whether tumor cells abnormally express and signal through the PXR/SXR receptor compared to their non-transformed counterparts, and thus, candidates for treatment with PXR/SXR agonists, immortalized, non-transformed cells and sub-confluent transformed, tumorigenic cells will be cultured in the presence or absence of various concentrations of a known PXR/SXR activator, e.g., benzoic acid derivatives, and a negative control, e.g., streptomycin, for a pre-determined time e.g., 5 days. Cell lyses will be achieved as described above. Following lyses, about 15 μg/lane of protein will be loaded and separated by 10% SDS-PAGE, followed by transfer to nitrocellulose membranes. Membranes will then incubated in the presence of e.g., monoclonal antibody 39048, specific for the PXR/SXR nuclear receptor, followed by washing and labeling with a peroxidase-labeled secondary antibody.
(§3) Similarly, to evaluate expression of cell cycle proteins that may be regulated by PXR/SXR activation in response to drug treatment, membranes as prepared above will be incubated with commercially available monoclonal antibodies such as PC410 (Chemicon, Temecula, Calif.), directed against β-integrin, as a positive control, monoclonal antibody 3303, specific for BRCA-2 (QED Biosciences, San Diego, Calif.), and with monoclonal antibody AB-3, directed against CDC25A (NeoMakers Inc). […]

CDC25A = CDC25A protein expression in G361 melanoma cells treated with PABA; type: cell-based; settings: G361 human melanoma cells treated with PABA; data not shown
From the text: as §2, §3

inhibition of tyrosinase activity (DOPAchrome formation, optical density at 475 nm) [4]	Structure (SMILES)	in vitro proliferation of 4T1 breast carcinoma cells (optical density at 490 nm) [1]	in vitro proliferation of Lewis Lung carcinoma cells (optical density at 490 nm) [2]	in vitro proliferation of B16F10 cells (optical density at 490 nm) (B16F10 melanoma cells [3])	growth of B16F10 tumors in chick embryos, with or without TAXOL (B16F10 melanoma cells [5])	tumor weight / tumor growth in chick embryos, with or without radiation (B16F10 melanoma cells [5]; single dose of radiation 5.0 Gy, FIG. 5A)	in vivo tumor growth (tumor volume) compared to untreated controls (B16F10 melanoma cells [6])	binding and activation of the PXR/SXR receptor (PXR/SXR receptor)	protein expression of DNA repair protein BRCA-2 (BRCA-2)	expression of cell-cycle progression checkpoint protein CDC25A (CDC25A)
inhibited tyrosinase activity	C=CCNc1ccc(C(=O)O)cc1 [C-45]	inhibited in vitro proliferation	inhibited in vitro proliferation	inhibited in vitro proliferation	inhibited the growth of the B16F10 tumors significantly	reduced tumor weight significantly	neither TAXOL® (paclitaxel) nor C-45 inhibited in vivo tumor growth			
inhibited tyrosinase activity	Nc1ccc(C(=O)O)cc1 [PABA, para-amino-benzoic acid]							bind and activate the PXR/SXR receptor	decreased protein expression of DNA repair protein BRCA-2	increase expression of cell-cycle progression checkpoint protein CDC25A
	CC(=O)O[C@H]1C(=O)[C@@]2(C)[C@H]([C@H](OC(=O)c3ccccc3)[C@]3(O)C[C@H](OC(=O)[C@H](O)[C@@H](NC(=O)c4ccccc4)c4ccccc4)C(C)=C1C3(C)C)[C@]1(OC(C)=O)CO[C@@H]1C[C@@H]2O [TAXOL® (paclitaxel), paclitaxel]	inhibited in vitro proliferation	inhibited in vitro proliferation	inhibited in vitro proliferation	inhibited the growth of the B16F10 tumors significantly		neither TAXOL® (paclitaxel) nor C-45 inhibited in vivo tumor growth			
